Patent publication US7795457B2, “Carbamate compounds” (Kosan Biosciences Incorporated, priority 2007, dated 2010)
Read-outs that look alike come from different tables or passages of the source.

What was measured:
HCT-116 = test: Inhibition of tumor cell proliferation, HCT-116; format: cell-based, human; conditions: Homo sapiens, read-out: Cancer Cell Line (IC50, nM) HCT-116
Protocol: (§1) The biological activity of compounds of this invention was evaluated by measuring their inhibitory effect on the proliferation of various tumor cell lines. HCT-116 is a human colon cancer cell line. LNCap is a human prostate cancer cell line. SiHa is an HPV-16 positive human cervical cancer line.

A549 = test: Inhibition of tumor cell proliferation, A549; format: cell-based; conditions: Homo sapiens, A549, 1 h, read-out: IC50, nM, A549
Protocol: as §1
(§2) Table D presents additional data for the activity of compounds A-1 and A-4 against various cell lines. In some instances, comparative data against leptomycin B (LMB) and/or compound VI (Dong et al., US 2005/0272727 A1 (2005) is also provided.
(§3) The additional cell lines tested against represent a variety of different cancers: bladder cancer (UM-UC-3), breast cancer (BT474, HCC1937, MDA-MB468, NCI-ADR), CNS cancer (U87MG (glioma), SKNSH (neuroblastoma)), colon cancer (LoVo, LS411N, LS513), head and neck cancer (CAL-27, FaDu), leukemia (CCRF-CEM, MOLT-4), liver cancer (HepG2), lung cancer (A549, NCI-H23, NCI-H358), melanoma (Colo829), ovarian cancer (OVCAR-4), pancreatic cancer (BxPC-3, Mia-PaCa2), prostate cancer (22Rv1, PC-3), and renal cancer (A-498, Caki-1).

SiHa = test: Inhibition of tumor cell proliferation, SiHa; format: cell-based, human; conditions: Homo sapiens, SiHa, read-out: Cancer Cell Line (IC50, nM) SiHa
Protocol: as §1

LNCap = test: Inhibition of tumor cell proliferation, LNCap; format: cell-based, human; conditions: Homo sapiens, LNCaP, read-out: Cancer Cell Line (IC50, nM) LNCap
Protocol: as §1

CRM1 substrate RanBP1 = test: Nuclear export block (RanBP1 localization, recovery after compound removal); format: cell-based; conditions: recovery of cytoplasmic RanBP1 localization after compound washout (typically 1 h exposure; 8, 24 or 48 h recovery)
Protocol: The nuclear export blocking capability of compounds of this invention was evaluated as follows:
1-5×10^4 cells were seeded onto 12 mm glass coverslips or wells of a chamber slide (for example, Lab-Tek #177445). Cells were grown overnight at 37° C. to allow cells to attach to the surface. Media was removed and replaced with media containing the desired test compound and incubated the required time period (typically 1 h). For recovery experiments, cells were washed with PBS or media and incubated in media without test compound for the desired recovery periods (typically 8, 24, or 48 h). The media was removed and coverslips/wells were washed with PBS pH 7.4 for 1 minute. Coverslips or slides were fixed with 3.7% formaldehyde in PBS for 20 minutes at room temperature, washed three times in PBS, and stained for the CRM1 substrate RanBP1.
Coverslips or chamber slides were permeabilized and blocked in 10% donkey serum, 0.1% Triton X-100 in PBS for 30 minutes at room temperature. Primary antibodies were diluted in PBS and incubated for 1 hour at room temperature: goat-anti-RanBP1 (Santa Cruz Biotechnology, sc-1160; 1:50 dilution) and mouse-anti-tubulin (Sigma, T9026; 1:400). Cells were washed 3×5 minutes in PBS. Secondary antibodies donkey-anti-goat Cy3 (705-165-147, Jackson Immunoresearch) and donkey anti-mouse FITC (715-095-150, Jackson Immunoresearch) were diluted 1:200 in PBS and incubated for 1 hour at room temperature. Secondary antibody was removed and cells were stained with a nuclear dye such as DAPI (Sigma, D8417; 2.5 ug/mL in PBS) or Hoechst 33342 (Molecular Probes, H3570; 100 ng/mL in PBS) for 5 minutes at room temperature. Cells were washed 3×5 minutes in PBS and coverslips were mounted with FluorSave (EMD Biosciences, 80058-108). Nuclear (N) or cytoplasmic (C) localization of RanBP1 was examined using a 40× objective on a Zeiss Axiovert 200 inverted epiflourescence microscope. Nuclear localization (N>C) was confirmed after the initial drugging period.

SKNSH = test: Inhibition of tumor cell proliferation, SKNSH; format: cell-based; conditions: Homo sapiens, SK-N-SH, read-out: IC50, nM, SKNSH
Protocol: as §1, §2, §3

Caki-1 = test: Inhibition of tumor cell proliferation, Caki-1; format: cell-based; conditions: Homo sapiens, exposure time 1 h
Protocol: as §1, §2, §3

A-498 = test: Inhibition of tumor cell proliferation, A-498; format: cell-based; conditions: Homo sapiens, A498; exposure time 1 h
Protocol: as §1, §2, §3

MDA-MB-468 = test: Inhibition of tumor cell proliferation, MDA-MB-468; format: cell-based; conditions: Homo sapiens, exposure time 1 h
Protocol: as §1, §2, §3

MOLT-4 = test: Inhibition of tumor cell proliferation, MOLT-4; format: cell-based; conditions: Homo sapiens, exposure time 72 h
Protocol: as §1, §2, §3

NCI-ADR = test: Inhibition of tumor cell proliferation, NCI-ADR; format: cell-based; conditions: Homo sapiens, NCI/ADR-RES, read-out: IC50, nM, NCI-ADR
Protocol: as §1, §2, §3

PC-3 = test: Inhibition of tumor cell proliferation, PC-3; format: cell-based; conditions: Homo sapiens
Protocol: as §1, §2, §3

CCRF-CEM = test: Inhibition of tumor cell proliferation, CCRF-CEM; format: cell-based; conditions: Homo sapiens, exposure time 72 h
Protocol: as §1, §2, §3

LoVo = test: Inhibition of tumor cell proliferation, LoVo; format: cell-based; conditions: Homo sapiens, exposure time 1 h
Protocol: as §1, §2, §3

LS513 = test: Inhibition of tumor cell proliferation, LS513; format: cell-based; conditions: Homo sapiens, LS-513
Protocol: as §1, §2, §3

NCI-H358 = test: Inhibition of tumor cell proliferation, NCI-H358; format: cell-based; conditions: Homo sapiens
Protocol: as §1, §2, §3

CAL-27 = test: Inhibition of tumor cell proliferation, CAL-27; format: cell-based; conditions: Homo sapiens
Protocol: as §1, §2, §3

U87MG = test: Inhibition of tumor cell proliferation, U87MG; format: cell-based; conditions: Homo sapiens, U-87 MG
Protocol: as §1, §2, §3

Mia-PaCa2 = test: Inhibition of tumor cell proliferation, Mia-PaCa2; format: cell-based; conditions: Homo sapiens, MIA PaCa-2
Protocol: as §1, §2, §3

LS411N = test: Inhibition of tumor cell proliferation, LS411N; format: cell-based; conditions: Homo sapiens, LS-411N
Protocol: as §1, §2, §3

HCC1937 = test: Inhibition of tumor cell proliferation, HCC1937; format: cell-based; conditions: Homo sapiens
Protocol: as §1, §2, §3

OVCAR-4 = test: Inhibition of tumor cell proliferation, OVCAR-4; format: cell-based; conditions: Homo sapiens
Protocol: as §1, §2, §3

UM-UC-3 = test: Inhibition of tumor cell proliferation, UM-UC-3; format: cell-based; conditions: Homo sapiens, read-out: IC50, nM, UM-UC-3
Protocol: as §1, §2, §3

NCI-H23 = test: Inhibition of tumor cell proliferation, NCI-H23; format: cell-based; conditions: Homo sapiens
Protocol: as §1, §2, §3

BT474 = test: Inhibition of tumor cell proliferation, BT474; format: cell-based; conditions: Homo sapiens, BT-474
Protocol: as §1, §2, §3

Colo829 = test: Inhibition of tumor cell proliferation, Colo829; format: cell-based; conditions: Homo sapiens, COLO-829
Protocol: as §1, §2, §3

HepG2 = test: Inhibition of tumor cell proliferation, HepG2; format: cell-based; conditions: Homo sapiens
Protocol: as §1, §2, §3

22Rv1 = test: Inhibition of tumor cell proliferation, 22Rv1; format: cell-based; conditions: Homo sapiens
Protocol: as §1, §2, §3

FaDu = test: Inhibition of tumor cell proliferation, FaDu; format: cell-based; conditions: Homo sapiens
Protocol: as §1, §2, §3

How did the IC50 (HCT-116; HCT-116, 1 h) turn out when `CC(=C/[C@H](C)C/C=C/C(C)=C/[C@@H](C)C(=O)[C@@H](C)[C@H](O)[C@@H](C)C/C(C)=C/COC(=O)NCc1ccccc1)/C=C/[C@H]1CC=CC(=O)O1` [Compound A-1] was run?
Its IC50 is 14.9 nM.

And the IC50 (HCT-116; HCT-116, 72 h)?
The IC50 was 3.3 nM.

And the IC50 (A549)?
Its IC50 is 23.5 nM.

And the IC50 (SiHa; 1 h)?
The IC50 was 3.6 nM.

What about the IC50 (SiHa; 72 h) of the same molecule?
Its IC50 is 1.1 nM.

And the IC50 (LNCap; 1 h)?
Its IC50 is 4.7 nM.

What about the IC50 (LNCap; 72 h) of the same molecule?
The IC50 was 1.8 nM.

What about the “Nuclear Export Block” value (CRM1 substrate RanBP1) of the same molecule?
The value was “Slow recovery”.

And the IC50 (SKNSH; 1 h)?
The IC50 was 5.1 nM.

What about the IC50 (SKNSH; 72 h) of the same molecule?
The IC50 was 1.5 nM.

What about the IC50 (Caki-1) of the same molecule?
Its IC50 is 6.6 nM.

And the IC50 (A-498)?
Its IC50 is 16 nM.

What about the IC50 (MDA-MB-468) of the same molecule?
The IC50 was 30.6 nM.

What about the IC50 (MOLT-4) of the same molecule?
Its IC50 is 3.2 nM.

What about the IC50 (NCI-ADR; 1 h) of the same molecule?
The IC50 was 194 nM.

And the IC50 (NCI-ADR; 72 h)?
Its IC50 is 20.6 nM.

And the IC50 (PC-3; exposure time 1 h)?
The IC50 was 7.4 nM.

And the IC50 (PC-3; exposure time 72 h)?
Its IC50 is 2.7 nM.

What about the IC50 (CCRF-CEM) of the same molecule?
The IC50 was 4.2 nM.

And the IC50 (LoVo)?
Its IC50 is 10.3 nM.

Which IC50 (LS513; exposure time 1 h) does the source give for `CC(=C/[C@H](C)C/C=C/C(C)=C/[C@@H](C)C(=O)[C@@H](C)[C@H](OC(N)=O)[C@@H](C)C/C(C)=C/COC(N)=O)/C=C/[C@H]1CC=CC(=O)O1` [Compound A-4] here?
The IC50 was 6.3 nM.

And the IC50 (LS513; exposure time 72 h)?
Its IC50 is 1 nM.

And the IC50 (NCI-H358; exposure time 1 h)?
Its IC50 is 5.6 nM.

And the IC50 (NCI-H358; exposure time 72 h)?
Its IC50 is 0.7 nM.

And the IC50 (HCT-116; HCT-116, 1 h)?
The IC50 was 13.1 nM.

What about the IC50 (HCT-116; HCT-116, 72 h) of the same molecule?
The IC50 was 2.2 nM.

And the IC50 (CAL-27; exposure time 1 h)?
The IC50 was 2.8 nM.

What about the IC50 (CAL-27; exposure time 72 h) of the same molecule?
The IC50 was 0.5 nM.

What about the IC50 (U87MG; exposure time 1 h) of the same molecule?
The IC50 was 25.5 nM.

What about the IC50 (U87MG; exposure time 72 h) of the same molecule?
Its IC50 is 1.5 nM.

What about the IC50 (Mia-PaCa2; exposure time 1 h) of the same molecule?
The IC50 was 49.7 nM.

What about the IC50 (Mia-PaCa2; exposure time 72 h) of the same molecule?
Its IC50 is 10.8 nM.

What about the IC50 (LS411N; exposure time 1 h) of the same molecule?
Its IC50 is 9.4 nM.

And the IC50 (LS411N; exposure time 72 h)?
Its IC50 is 1.6 nM.

What about the IC50 (HCC1937; exposure time 1 h) of the same molecule?
Its IC50 is 42.3 nM.

What about the IC50 (HCC1937; exposure time 72 h) of the same molecule?
Its IC50 is 7.3 nM.

What about the IC50 (SiHa; 1 h) of the same molecule?
Its IC50 is 3.6 nM.

And the IC50 (SiHa; 72 h)?
Its IC50 is 0.8 nM.

What about the IC50 (OVCAR-4; exposure time 1 h) of the same molecule?
Its IC50 is 80 nM.

And the IC50 (OVCAR-4; exposure time 72 h)?
Its IC50 is 8.8 nM.

What about the IC50 (UM-UC-3; UMUC3, 1 h) of the same molecule?
Its IC50 is 7 nM.

What about the IC50 (UM-UC-3; UMUC3, 72 h) of the same molecule?
Its IC50 is 1.4 nM.

What about the IC50 (LNCap; 1 h) of the same molecule?
Its IC50 is 6.6 nM.

What about the IC50 (LNCap; 72 h) of the same molecule?
The IC50 was 1.5 nM.

And the “Nuclear Export Block” value (CRM1 substrate RanBP1)?
The value was “Moderate recovery”.

And the IC50 (NCI-H23; exposure time 1 h)?
Its IC50 is 8.5 nM.

And the IC50 (NCI-H23; exposure time 72 h)?
Its IC50 is 1.3 nM.

And the IC50 (BT474; exposure time 1 h)?
Its IC50 is 3.8 nM.

And the IC50 (BT474; exposure time 72 h)?
The IC50 was 2.3 nM.

What about the IC50 (Colo829; exposure time 1 h) of the same molecule?
Its IC50 is 4.6 nM.

And the IC50 (Colo829; exposure time 72 h)?
The IC50 was 0.9 nM.

What about the IC50 (HepG2; exposure time 1 h) of the same molecule?
The IC50 was 7.8 nM.

What about the IC50 (HepG2; exposure time 72 h) of the same molecule?
The IC50 was 0.8 nM.

What about the IC50 (A-498) of the same molecule?
Its IC50 is 16 nM.

What about the IC50 (22Rv1; exposure time 1 h) of the same molecule?
The IC50 was 4.6 nM.

What about the IC50 (22Rv1; exposure time 72 h) of the same molecule?
Its IC50 is 0.7 nM.

What about the IC50 (NCI-ADR; 1 h) of the same molecule?
The IC50 was 771 nM.

And the IC50 (NCI-ADR; 72 h)?
Its IC50 is 71.3 nM.

And the IC50 (FaDu; exposure time 1 h)?
Its IC50 is 27.9 nM.

And the IC50 (FaDu; exposure time 72 h)?
Its IC50 is 1.6 nM.
